From patent US9199959B2, “HIV replication inhibitor” (Shionogi & Co., Ltd., priority 2011, dated 2015) come the findings set out here.

Series [1] in a line: Solubility test, 1% DMSO addition, artificial intestinal juice pH 6.8. In kind it is physicochemical. As to conditions: artificial intestinal juice with 1% DMSO, fassgf or other biorelevant, kinetic from dmso stock; pH 6.8, 1% DMSO addition, 16 hours at 25° C. How it is done: The solubility of each compound was determined under 1% DMSO addition conditions. A 10 mmol/L solution of the compound was prepared with DMSO, and 6 μL of the solution was added to 594 μL of an artificial intestinal juice (water and a 118 mL solution of 0.2 mol/L NaOH reagent are added to 250 mL of 0.2 mol/L potassium dihydrogen phosphate reagent to reach 1000 mL) with a pH of 6.8. The mixture is left standing for 16 hours at 25° C., and the mixture is vacuum-filtered. The filtrate is two-fold diluted with methanol/water=1/1 (v/v), and the compound concentration in the filtrate is measured with HPLC or LC/MS/MS by the absolute calibration method.

Series [2] has as its target T1, CYP1A2 (Homo sapiens, UniProt P05177).
T1 construct: enzyme, pooled human hepatic microsome 0.2 mg protein/mL; from tissue; host or cells: pooled human liver microsomes
T1 sequence (P05177 1-516): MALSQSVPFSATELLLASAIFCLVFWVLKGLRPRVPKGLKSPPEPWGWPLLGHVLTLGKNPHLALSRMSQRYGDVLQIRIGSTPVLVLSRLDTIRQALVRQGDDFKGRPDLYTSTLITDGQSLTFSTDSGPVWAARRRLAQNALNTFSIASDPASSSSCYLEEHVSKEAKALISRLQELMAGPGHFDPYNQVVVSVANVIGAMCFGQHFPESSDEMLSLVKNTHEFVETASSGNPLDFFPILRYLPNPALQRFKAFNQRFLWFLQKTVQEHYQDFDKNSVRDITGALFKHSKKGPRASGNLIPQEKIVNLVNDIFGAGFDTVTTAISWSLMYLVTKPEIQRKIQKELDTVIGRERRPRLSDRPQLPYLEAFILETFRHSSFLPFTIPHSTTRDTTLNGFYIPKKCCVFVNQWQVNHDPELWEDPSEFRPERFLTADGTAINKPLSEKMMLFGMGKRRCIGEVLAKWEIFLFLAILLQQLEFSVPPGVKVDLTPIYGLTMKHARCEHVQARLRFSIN
Put plainly: CYP inhibition assay, 7-ethoxyresorufin O-deethylation. In kind it is in vitro ADME. Conditions: pooled human liver microsomes, probe 7-ethoxyresorufin (O-deethylation), 0.5 μmol/L, pooled human hepatic microsome. How it is done:
Using commercially available pooled human hepatic microsome, and employing, as markers, 7-ethoxyresorufin O-deethylation (CYP1A2), tolbutamide methyl-hydroxylation (CYP2C9), mephenytoin 4′-hydroxylation (CYP2C19), dextromethorphan O-demethylation (CYP2D6), and terfenedine hydroxylation (CYP3A4) as typical substrate metabolism reactions of human main five CYP enzyme forms (CYP1A2, 2C9, 2C19, 2D6, 3A4), an inhibitory degree of each metabolite production amount by a test compound was assessed.
The reaction conditions were as follows: substrate, 0.5 μmol/L ethoxyresorufin (CYP1A2), 100 μmol/L tolbutamide (CYP2C9), 50 μmol/L S-mephenytoin (CYP2C19), 5 μmol/L dextromethorphan (CYP2D6), 1 μmol/L terfenedine (CYP3A4); reaction time, 15 minutes; reaction temperature, 37° C.; enzyme, pooled human hepatic microsome 0.2 mg protein/mL; test drug concentration, 1, 5, 10, 20 μmol/L (four points).
Each five kinds of substrates, human hepatic microsome, and a test drug in 50 mmol/L Hepes buffer as a reaction solution was added to a 96-well plate as the composition as described above, NADPH, as a cofactor was added to initiate metabolism reactions as markers and, after the incubation at 37° C. for 15 minutes, a methanol/acetonitrile=1/1 (v/v) solution was added to stop the reaction. After the centrifugation at 3000 rpm for 15 minutes, resorufin (CYP1A2 metabolite) in the supernatant was quantified by a fluorescent multilabel counter and tolbutamide hydroxide (CYP2C9 metabolite), mephenytoin 4′ hydroxide (CYP2C19 metabolite), dextrorphan (CYP2D6 metabolite), and terfenadine alcohol (CYP3A4 metabolite) were quantified by LC/MS/MS.
A reaction system containing only DMSO which is a solvent for dissolving a drug was adopted as a control (100%), and the remaining activity (%) was calculated, then IC50 was calculated by reverse presumption with a logistic model using a concentration and an inhibition rate.

The test system of series [3] is Salmonella typhimurium TA98 strain, TA100 strain. It counts as cell-based. Conditions: Salmonella typhimurium TA98, TA100, non-metabolism and metabolism activating condition. As to the method: The mutagenicity of the compound of the present invention was assayed.
20 μL of freezing-stored rat typhoid bacillus (Salmonella typhimurium TA98 strain, TA100 strain) was inoculated on 10 mL of a liquid nutrient medium (2.5% Oxoid nutrient broth No. 2), and this was cultured before shaking at 37° C. for 10 hours. 9 mL of a bacterial solution of the TA98 strain was centrifuged (2000×g, 10 minutes) to remove a culturing solution. The bacteria was suspended in F buffer (K2HPO4: 3.5 g/L, KH2PO4: 1 g/L, (NH4)2SO4: 1 g/L, trisodium citrate dehydrate: 0.25 g/L, MgSO4.7H2O: 0.1 g/L), and the suspension was added to 110 mL of an Exposure medium (Micro F buffer containing Biotin: 8 μg/mL, histidine: 0.2 μg/mL, glucose: 8 mg/mL). The TA100 strain was added to 120 mL of the Exposure medium per 3.16 mL of the bacterial solution to prepare a test bacterial solution. […] of a test substance DMSO solution (several stage dilution from maximum dose 50 mg/mL at 2- to 3-fold ratio), DMSO as a negative control, 50 μg/mL of 4-nitroquinoline-1-oxide DMSO solution for the TA98 strain, 0.25 μg/mL of 2-(2-furyl)-3-(5-nitro-2-furyl)acrylamide DMSO solution for the TA100 strain each under the non-metabolism activating condition, 40 μg/mL of 2-aminoanthracene DMSO solution for the TA98 strain, 20 μg/mL of 2-aminoanthracene DMSO solution for the TA100 strain each under the metabolism activating condition all as a positive control, and 588 μL of the test bacterial solution (a mixed solution of 498 μL of the test bacterial solution and 90 μL of S9 mix under the metabolism activating condition) were mixed, and this was shaking-cultured at 37° C. for 90 minutes. […] Since a well containing a bacterium which has obtained the proliferation ability by mutation of an amino acid (histidine) synthesizing enzyme gene turns from purple to yellow due to a pH change, the bacterium proliferation well which has turned to yellow in 48 wells per dose is counted, and was assessed by comparing with a negative control group. […]

Regarding `CC(=O)Nc1c(C)c(C(OC(C)(C)C)C(=O)O)c(-c2ccc(C)c(C)c2)c(C)c1-c1ccc(C)c(C)c1` (stereo not drawn) [Compound I-6], in series [1], the solubility at 16 h is no less than 50 µM. The compound further gave an IC50 at 15 min in series [2] of no less than 20 µM. Also, in series [3], the mutagenicity entry is recorded as “negative”.

The term solubility denotes how much of the substance goes into solution per volume. A word on the IC50: it is the concentration needed to halve the response being measured. A lower IC50 goes with greater potency.
